Experimental data taken from US11399543B2, “Substituted 1,2,3,5-tetrahydroimidazo[1,2-a]pyrimidiniumolates for combating animal pests” (BASF SE, priority 2017, dated 2022).
Read-outs that look alike come from different tables or passages of the source.

Legend:
Assay type in all cases: in vivo
[1] = tested on: Rice Brown Plant Hopper (Nilaparvata lugens); test: Rice brown plant hopper, sprayed rice seedlings; settings: after 72 hours, adults, read-out: mortality in comparison with untreated controls
Description: (§1) Rice seedlings were cleaned and washed 24 hours before spraying. The active compounds were formulated in 50:50 acetone:water (vol:vol) and 0.1% vol/vol surfactant (EL 620) was added. Potted rice seedlings were sprayed with 5 ml test solution, air dried, placed in cages and inoculated with 10 adults. Treated rice plants were kept at about 28-29° C. and relative humidity of about 50-60%. Percent mortality was recorded after 72 hours.

[2] = tested on: green peach aphid (Myzus persicae); test: Green peach aphid B.5.2, systemic, artificial diet under membrane; settings: 72 h, read-out: mortality in comparison with untreated controls
Excerpt: B.5.2. For evaluating control of green peach aphid (Myzus persicae) through systemic means the test unit consisted of 96-well-microtiter plates containing liquid artificial diet under an artificial membrane. The compounds were formulated using a solution containing 75% v/v water and 25% v/v DMSO. Different concentrations of formulated compounds were pipetted into the aphid diet, using a custom built pipetter, at two replications.
After application, 5-8 adult aphids were placed on the artificial membrane inside the microtiter plate wells. The aphids were then allowed to suck on the treated aphid diet and incubated at about 23±1° C. and about 50±5% relative humidity for 3 days. Aphid mortality and fecundity was then visually assessed.

[3] = tested on: tobacco budworm (Heliothis virescens); test: Tobacco budworm control, microtiter plate insect diet with eggs; settings: 120 h, 5 days, read-out: mortality in comparison with untreated controls (egg and larval mortality)
Description: For evaluating control of tobacco budworm (Heliothis virescens) the test unit consisted of 96-well-microtiter plates containing an insect diet and 15-25 H. virescens eggs.
The compounds were formulated using a solution containing 75% v/v water and 25% v/v DMSO. Different concentrations of formulated compounds were sprayed onto the insect diet at 10 μl, using a custom built micro atomizer, at two replications.
After application, microtiter plates were incubated at about 28±1° C. and about 80±5% relative humidity for 5 days. Egg and larval mortality was then visually assessed.

[4] = tested on: Rice Green Leafhopper (Nephotettix virescens); test: Rice green leafhopper, sprayed rice seedlings; settings: after 72 hours, adults, read-out: mortality in comparison with untreated controls
Description: as §1, with “(vol:vol),” for “(vol:vol)”

[5] = tested on: Cowpea Aphid (Aphis craccivora); test: Cowpea aphid, sprayed potted cowpea plants; settings: after 72 hours, read-out: mortality in comparison with untreated controls
Description: (§2) The active compound is dissolved at the desired concentration in a mixture of 1:1 (vol:vol) distilled water:acetone. Surfactant (Alkamuls® EL 620) is added at a rate of 0.1% (vol/vol). The test solution is prepared at the day of use.
Potted cowpea plants were colonized with approximately 50-100 aphids of various stages by manually transferring a leaf tissue cut from infested plant 24 hours before application. Plants were sprayed after the pest population has been recorded. Treated plants are maintained on light carts at about 28° C. Percent mortality was assessed after 72 hours.

[6] = tested on: vetch aphid (Megoura viciae); test: Vetch aphid, broad bean leaf disks, contact or systemic; settings: foliar, 120 h, 5 days, read-out: mortality in comparison with untreated controls
Description: For evaluating control of vetch aphid (Megoura viciae) through contact or systemic means the test unit consisted of 24-well-microtiter plates containing broad bean leaf disks.
The compounds were formulated using a solution containing 75% v/v water and 25% v/v DMSO. Different concentrations of formulated compounds were sprayed onto the leaf disks at 2.5 μl, using a custom built micro atomizer, at two replications.
After application, the leaf disks were air-dried and 5-8 adult aphids placed on the leaf disks inside the microtiter plate wells. The aphids were then allowed to suck on the treated leaf disks and incubated at about 23±1° C. and about 50±5% relative humidity for 5 days. Aphid mortality and fecundity was then visually assessed.

[7] = tested on: Green Soldier Stink Bug (Nezara viridula); test: Green soldier stink bug, sprayed soybean pods in Petri dishes; settings: 120 h, after 5 days, late 3rd instar, read-out: mortality in comparison with untreated controls
Description: The active compound was dissolved at the desired concentration in a mixture of 1:1 (vol:vol) distilled water:aceteone. Surfactant (Kinetic® HV) is added at a rate of 0.01% (vol/vol). The test solution was prepared at the day of use.
Soybean pods were placed in 90×50 mm glass Petri dishes lined with moist filter paper and inoculated with ten late 3rd instar N. viridula. Using a hand atomizer, an approximately 2 ml solution is sprayed into each Petri dish. Treated cups were kept at about 25-26° C. and relative humidity of about 65-70%. Percent mortality was recorded after 5 days.

[8] = tested on: Southern Armyworm (Spodoptera eridania), 2nd Instar Larvae; test: Southern armyworm, sprayed lima bean plants; settings: 96 h, 4 days after treatment, read-out: mortality in comparison with untreated controls
Description: (§3) The active compounds were formulated in cyclohexanone as a 10,000 ppm solution supplied in tubes. The tubes were inserted into an automated electrostatic sprayer equipped with an atomizing nozzle and they served as stock solutions for which lower dilutions were made in 50% ace-tone:50% water (v/v). A nonionic surfactant (Kinetic®) was included in the solution at a volume of 0.01% (v/v).
Lima bean plants (variety sieva) were grown 2 plants to a pot and selected for treatment at the 1st true leaf stage. Test solutions were sprayed onto the foliage by an automated electrostatic plant sprayer equipped with an atomizing spray nozzle. The plants were dried in the sprayer fume hood and then removed from the sprayer. Each pot was placed into perforated plastic bags with a zip closure. About 10 to 11 armyworm larvae were placed into the bag and the bags zipped closed. Test plants were maintained in a growth room at about 25° C. and about 20-40% relative humidity for 4 days, avoiding direct exposure to fluorescent light (24 hour photoperiod) to prevent trapping of heat inside the bags. Mortality and reduced feeding were assessed 4 days after treatment, compared to untreated control plants.

[9] = tested on: Silverleaf Whitefly (Bemisia argentifolii) (Adults); test: Silverleaf whitefly adults, sprayed cotton plants; settings: at 300, 3 days after treatment
Excerpt: as §3, with “non-ionic” for “nonionic”
Cotton plants at the cotyledon stage (one plant per pot) were sprayed by an automated electrostatic plant sprayer equipped with an atomizing spray nozzle. The plants were dried in the sprayer fume hood and then removed from the sprayer. Each pot was placed into a plastic cup and about 10 to 12 whitefly adults (approximately 3-5 days old) were introduced. The insects were collected using an aspirator and a nontoxic Tygon® tubing connected to a barrier pipette tip. The tip, containing the collected insects, was then gently inserted into the soil containing the treated plant, allowing insects to crawl out of the tip to reach the foliage for feeding. Cups were covered with a reusable screened lid. Test plants were maintained in a growth room at about 25° C. and about 20-40% relative humidity for 3 days, avoiding direct exposure to fluorescent light (24-hour photoperiod) to prevent trapping of heat inside the cup. Mortality was assessed 3 days after treatment, compared to untreated control plants.

[10] = tested on: Diamond Back Moth (Plutella xylostella); test: Diamond back moth, cabbage leaf dip; settings: foliar, 72 hours after treatment, 3rd instar larvae, read-out: mortality in comparison with untreated controls
Description: as §2
Leaves of cabbage were dipped in test solution and air-dried. Treated leaves were placed in petri dish enlined with moist filter paper and inoculated with ten 3rd instar larvae. Mortality was recorded 72 hours after treatment. Feeding damages were also recorded using a scale of 0-100%.

[11] = tested on: Green Peach Aphid (Myzus persicae, Mixed Life Stages); test: Green peach aphid B.5.1, sprayed bell pepper plants; settings: 120 h, after 5 days, read-out: mortality in comparison with untreated controls
Description: B.5.1. The active compounds were formulated by a Tecan liquid handler in 100% cyclohexanone as a 10,000 ppm solution supplied in tubes. The 10,000 ppm solution was serially diluted in 100% cyclohexanone to make interim solutions. These served as stock solutions for which final dilutions were made by the Tecan in 50% acetone:50% water (v/v) into 10 or 20 ml glass vials. A nonionic surfactant (Kinetic®) was included in the solution at a volume of 0.01% (v/v). The vials were then inserted into an automated electrostatic sprayer equipped with an atomizing nozzle for application to plants/insects.
Bell pepper plants at the first true-leaf stage were infested prior to treatment by placing heavily infested leaves from the main colony on top of the treatment plants. Aphids were allowed to transfer overnight to accomplish an infestation of 30-50 aphids per plant and the host leaves were removed. The infested plants were then sprayed by an automated electrostatic plant sprayer equipped with an atomizing spray nozzle. The plants were dried in the sprayer fume hood, removed, and then maintained in a growth room under fluorescent lighting in a 24-hr photoperiod at about 25° C. and about 20-40% relative humidity. Aphid mortality on the treated plants, relative to mortality on untreated control plants, was determined after 5 days.

[12] = at 2500 ppm, 3 days, systemic, artificial diet

With `CN1CC(c2cnc(Cl)s2)n2c1[n+](C)c([O-])c(-c1ccccc1)c2=O` (centres unmarked) [Compound C-3] the mortality at 300 ppm [1] was greater than 75%, the mortality at 2500 ppm [2, 12] was greater than 75% and the mortality at 2500 ppm [3] was greater than 75%. It also gave a mortality at 300 ppm [4] greater than 75%, a mortality at 300 ppm [5] greater than 75% and a mortality at 2500 ppm [6] greater than 75%.
`CN1C[C@@H](c2cnc(Cl)s2)n2c1[n+](C)c([O-])c(-c1cccc(C(F)(F)F)c1)c2=O` [Compound C-20] gave a mortality at 300 ppm [7] greater than 75%, a mortality at 2500 ppm [2, 12] greater than 75% and a mortality at 300 ppm [5] greater than 75%. For the same compound, the mortality at 2500 ppm [6] was greater than 75% and the mortality at 300 ppm [8] was greater than 75%.
Compound `CN1CC(c2cnc(Cl)s2)n2c1[n+](C)c([O-])c(-c1cccc(C(F)(F)F)c1)c2=O` (centres unmarked) [Compound C-5] has a mortality at 300 ppm [7] greater than 75%, a mortality at 300 ppm [1] greater than 75% and a mortality at 2500 ppm [2, 12] greater than 75%. It also gave a mortality at 2500 ppm [3] greater than 75%, a mortality at 300 ppm [4] greater than 75% and a mortality at 300 ppm [5] greater than 75%. The mortality at 2500 ppm [6] was greater than 75%, the “mortality in comparison with untreated controls” value [9] was “over 75%” and the mortality at 300 ppm [10] was greater than 75%. For the same compound, the mortality at 300 ppm [11] was greater than 75% and the mortality at 300 ppm [8] was greater than 75%.
`CN1CC(c2ccc(Cl)nc2)n2c1[n+](C)c([O-])c(-c1cc(Cl)cc(Cl)c1)c2=O` (centres unmarked) [Compound C-21] showed a mortality at 2500 ppm [2] greater than 75%.
`C[n+]1c2n(c([O-])c(-c3ccccc3)c1=O)C(c1cnc(Cl)s1)CN2` (centres unmarked) [Compound C-25] was tested, and the mortality at 2500 ppm [2] was greater than 75%.
Compound `COc1ccc(-c2c([O-])n3c([n+](C)c2=O)N(C)CC3c2cnc(Cl)s2)cc1` (centres unmarked) [Compound C-1, 3-(2-chlorothiazol-5-yl)-6-(4-methoxyphenyl)-1,8-dimethyl-7-oxo-2,3-dihydroimidazo[1,2-a]pyrimidin-8-ium-5-olate] has a mortality at 2500 ppm [2, 12] greater than 75% and a mortality at 300 ppm [5] greater than 75%.
In the case of `C[n+]1c([O-])c(-c2ccccc2)c(=O)n2c1N(C(=O)OC(C)(C)C)CC2c1cnc(Cl)s1` (centres unmarked) [Compound C-2], the mortality at 2500 ppm [2, 12] is reported as greater than 75%.
Compound `CN1CC(c2cnc(Cl)s2)n2c1[n+](C)c([O-])c(-c1cc(Cl)cc(Cl)c1)c2=O` (centres unmarked) [Compound C-4] has a mortality at 300 ppm [1] greater than 75%, a mortality at 2500 ppm [2, 12] greater than 75% and a mortality at 2500 ppm [3] greater than 75%. The mortality at 300 ppm [4] was greater than 75%, the mortality at 300 ppm [5] was greater than 75% and the mortality at 2500 ppm [6] was greater than 75%. It also gave a mortality at 300 ppm [10] greater than 75% and a mortality at 300 ppm [8] greater than 75%.
